# Laboratory results published in article PMC8227885 (Viruses, 2021).
# Tested on: RBD
# Type: binding, SARS-CoV-2
row,Substance,"biosensor activity with RBD-Lg, ACE2 deletions and mutants"
1,Sm-ACE2-18-515,significantly lower than that of Sm-ACE2-18-615/RBD-Lg
2,Sm-ACE2-18–415,reduced biosensor activity
3,ACE2 K31,significantly reduced biosensor activity
4,K353A,almost abolished biosensor activity
